Patent US20230346826A1, “COMPOSITIONS AND METHODS FOR TREATING AND/OR PREVENTING AUTOIMMUNE DISORDERS” (The Regents of the University of Michigan, priority 2020, published 2023)

B1: OVA: albumin (OVA) protein, unformulated allergen given orally as OIT comparator (protein, UniProt P01012 2-386, looked up)
Ovalbumin: GSIGAASMEFCFDVFKELKVHHANENIFYCPIAIMSALAMVYLGAKDSTRTQINKVVRFDKLPGFGDSIEAQCGTSVNVHSSLRDILNQITKPNDVYSFSLASRLYAEERYPILPEYLQCVKELYRGGLEPINFQTAADQARELINSWVESQTNGIIRNVLQPSSVDSQTAMVLVNAIVFKGLWEKAFKDEDTQAMPFRVTEQESKPVQMMYQIGLFRVASMASEKMKILELPFASGTMSMLVLLPDEVSGLEQLESIINFEKLTEWTSSNVMEERKIKVYLPRMKMEEKYNLTSVLMAMGITDVFSSSANLSGISSAESLKISQAVHAAHAEINEAGREVVGSAEAGVDAASVSEEFRADHPFLFCIKHIATNAVLFFGRCVSP

How the values were obtained:
[1] = system: C57BL/6 mice given 3% DSS (acute colitis); assay: DSS-induced acute colitis model; assay type: in vivo; conditions: 3% DSS for 6 days, oral gavage
Excerpt: We examined whether oral administration of inulin gel loaded with an immune tolerizing drug can exert therapeutic efficacy against colitis. Mice were given 3% DSS in drinking water for 6 days to induce acute colitis. Starting day 0, mice were also orally gavaged with either PBS, an Ahr ligand, indole-3-aldehyde (IALD), or inulin gel formulated with IALD (inulin gel + IALD) (FIG. 5A).
Method: Six-week-old female C57BL/6 mice were acclimatized for 2 weeks before the start of the study. To induce colitis, mice were given 3% DSS (40 kDa; Alfa Aesar) supplemented in the drinking water for 6 days, followed by giving normal water. Inulin gel + IALD, IALD or PBS was orally gavaged into mice on predetermined days. The inulin gel + IALD was prepared by dissolving 300 mg of inulin from chicory (Sigma-Aldrich) in 0.9 ml deionized water and 0.1 ml IALD solution (50 mg/mL, DMSO). The inulin solution was thoroughly mixed with IALD solution by vortex and was heated to 70° C. for 5 min. The formulation was kept at room temperature for 12 h for gelation. The IALD was prepared similarly without adding the inulin. Bodyweight were measured daily over the experimental period. On day 9, mice were sacrificed, and the entire colon was excised. Colon length and the cecum weight was measured.

[2] = system: BABL/c mice sensitized with OVA/Alum (OVA allergy); assay type: in vivo; conditions: after the 3rd OVA challenge; escalated dose OIT
Method: To simulate the widely used therapeutic plan in clinic, we next provided the escalated dose of OVA in OIT treatment (FIG. 2a).
Preparation and characterization of inulin gel, PE or OVA loaded inulin gel. For OVA-related study, 495 mg of inulin from chicory (Sigma-Aldrich) was dissolved in 1.35 mL PBS and heated for 5 min. OVA (Sigma-Aldrich) was added right after cool-down of inulin. For PE-related study, 300 mg of inulin from chicory (Sigma-Aldrich) was dissolved in 0.9 mL deionized water, after heating for 5 min, 8 mg of PE was added right after cool-down. Samples were kept at 4° C. for 24 h. […] The content of protein in peanut extraction (around 20%) was determined by BCA assay.
In vivo oral sensitization, immunotherapy, and challenge. […] Body weight before all times of i.g. challenge were recorded, while the body temperature in the last time of i.g. challenge was measured. […] On day 73, mice were i.p. injected with 125 µg PE and the body temperature was recorded at preset times via rectal temperature probe.
Assessment of hypersensitivity reactions and diarrhea. Anaphylactic symptoms were evaluated between 30 to 50 minutes after i.p. challenge of PE (125 µg/dose) or i.g. challenge of OVA (50 mg/dose). […] For OVA study, mice with profuse liquid stool up to 1 h after i.g. challenge were recorded as diarrhea-positive animals. […]
Intestinal mast cell quantification. […]

| Molecule | bodyweight loss ([1]; daily bodyweight for 9 d) | shortening of the colon length ([1]; day 9) | death after OVA challenge [2] |
| --- | --- | --- | --- |
| O=Cc1c[nH]c2ccccc12 [IALD, indole-3-aldehyde] | significant bodyweight loss | shortening of the colon length | – |
| B1 | – | – | Some mice in the OVA group died |
